# Test results: US8163909B2, “Substituted hydroxyethyl amine compounds as beta-secretase modulators and methods of use” (Amgen Inc., priority 2007, dated 2012)
# Read-outs that look alike come from different tables or passages of the source.
# Columns and labels:
# [1] = tested on: Aβ40 in conditioned medium of cells stably expressing Amyloid Precursor Protein (APP); assay: In vitro BACE cell-based assay (Aβ40 in conditioned medium, sandwich ELISA); details: Homo sapiens, HEK293, HEK cells, cell-based assay; read-out: HEK cell assay (IC50);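 further: compounds added as a dilution series, secreted peptide quantified by europium time-resolved fluorescence readout, potency fitted from percent of control versus compound concentration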
# [2] = molecular target: Beta Secretase enzyme (BACE) (Homo sapiens, UniProt P56817); assay: In vitro enzymatic BACE FRET (fluorescence resonance energy transfer) assay; assay type: biochemical; details: read-out: BACE1 FRET assay (IC50);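 further: fluorescence read after 1 h with 50 nM quenched peptide substrate spanning the BACE cleavage site, in pH 4.2 acetate buffer containing 10% DMSO and nonionic detergent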
# Beta Secretase enzyme (BACE), sequence (P56817 46-501): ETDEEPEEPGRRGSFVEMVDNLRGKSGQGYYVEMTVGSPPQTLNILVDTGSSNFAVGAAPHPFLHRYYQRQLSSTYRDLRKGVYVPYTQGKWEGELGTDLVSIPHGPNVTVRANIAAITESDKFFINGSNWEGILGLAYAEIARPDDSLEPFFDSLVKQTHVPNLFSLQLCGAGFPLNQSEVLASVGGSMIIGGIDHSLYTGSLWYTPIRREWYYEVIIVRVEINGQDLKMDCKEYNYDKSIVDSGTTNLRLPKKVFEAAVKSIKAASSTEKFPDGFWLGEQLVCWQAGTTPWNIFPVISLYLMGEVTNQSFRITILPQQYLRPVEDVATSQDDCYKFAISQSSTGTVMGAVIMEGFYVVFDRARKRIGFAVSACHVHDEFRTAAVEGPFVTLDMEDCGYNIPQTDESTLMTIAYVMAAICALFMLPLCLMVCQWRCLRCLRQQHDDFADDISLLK
Compound,IC50 [1] [nM],IC50 ([2]; BACE enzyme assay) [nM],IC50 ([2]; BACE enzyme FRET assay) [nM]
CC(=O)N[C@@H](Cc1ccc(F)cc1)[C@H](O)CN[C@H]1CC2(CCC2)C(F)(F)c2ncc(CC(C)(C)C)cc21 [compound 165],109,107,
CC(=O)N[C@@H](Cc1ccc2c(c1)OCO2)[C@H](O)CN[C@H]1CC2(CCC2)Cc2ncc(CC(C)(C)C)cc21 [compound 167],68.4,125,
COCC(=O)N[C@@H](Cc1ccc2c(c1)OCO2)[C@H](O)CN[C@H]1CC2(CCC2)Cc2ncc(CC(C)(C)C)cc21 [compound 168],211,149,
CO[C@@H](C)C(=O)N[C@@H](Cc1ccc(F)cc1)[C@H](O)CN[C@H]1CC2(CCC2)Oc2c(F)cc(CC(C)(C)C)cc21 [compound 175],229,17.2,
CC(C)(C)[C@@H](F)c1cnc2c(c1)[C@@H](NC[C@@H](O)[C@H](Cc1ccc3c(c1)OCO3)NC(=O)CF)CC1(CCC1)O2 [compound 185],26.4,18.5,
COCC(=O)N[C@@H](Cc1ccc2c(c1)OCO2)[C@H](O)CN[C@H]1CC(C)(C)Cc2sc(CC(C)(C)C)cc21 [compound 187],63.5,,20.2
COCC(=O)N[C@@H](Cc1ccc(F)cc1)[C@H](O)CN[C@H]1CC2(CCC2)Oc2ncc([C@H](O)C(C)(C)C)cc21 [compound 188],1660,,61.2
COCC(=O)N[C@@H](Cc1ccc(F)cc1)[C@H](O)CN[C@H]1CC2(CCC2)Oc2ncc([C@@H](O)C(C)(C)C)cc21 [compound 189],1000,,880
COCC(=O)N[C@@H](Cc1ccc(F)cc1)[C@H](O)CN[C@H]1CC2(CCC2)Oc2ncc(CCC(F)(F)F)cc21 [compound 193],518,,202
CO[C@H](C)C(=O)N[C@@H](Cc1ccc2c(c1)OCO2)[C@H](O)CN[C@H]1CC2(CCC2)Oc2ncc(CCC(F)(F)F)cc21 [compound 194],1520,,1070
COCC(=O)N[C@@H](Cc1ccc2c(c1)OCO2)[C@H](O)CN[C@H]1CC2(CCC2)Oc2ncc(CCC(F)(F)F)cc21 [compound 195],621,,754
COCC(=O)N[C@@H](Cc1ccc2c(c1)OCO2)[C@@H](CN[C@H]1CC2(CCC2)Oc2ncc([C@H](F)C(C)(C)C)cc21)OC [compound 196],3990,,2640
CC(=O)N[C@@H](Cc1ccc(F)cc1)[C@H](O)CN[C@H]1CC2(CCC2)Oc2ccc(CC(C)(C)F)cc21 [compound 200],375,,206
"CC(=O)N[C@@H](Cc1cccc(F)c1)[C@H](O)CN[C@H]1CC2(CCC2)Oc2ccc(CC(C)(C)F)cc21 [compound 201, N-((1S,2R)-3-(((4S)-6-(2-fluoro-2-methylpropyl)-3,4-dihydrospiro[chromene-2,1′-cyclobutan]-4-yl)amino)-1-((3-fluorophenyl)methyl)-2-hydroxypropyl)acetamide]",76.8,,20.1
CC(=O)N[C@@H](Cc1ccccc1)[C@H](O)CN[C@H]1CC2(CCC2)Oc2ncc(CC3CC3)cc21 [compound 202],65.9,,34.2
COCC(=O)N[C@@H](Cc1cc(Br)c2c(c1)OCO2)[C@H](O)CN[C@H]1CC2(CCC2)Oc2ncc(CC(C)(C)C)cc21 [compound 204],82.4,,95.6

# Second part, the compound after the results:
IC50 [1] [nM],IC50 ([2]; BACE enzyme assay) [nM],IC50 ([2]; BACE enzyme FRET assay) [nM],Compound
9.85,10.8,,COCC(=O)N[C@@H](Cc1ccnc(OCC(F)(F)F)c1)[C@H](O)CN[C@H]1CC2(CCC2)Oc2ncc(CC(C)(C)C)cc21 [compound 166]
53.5,12.5,,CC(=O)N[C@@H](Cc1ccc2c(c1)OCO2)[C@H](O)CN[C@H]1CC2(CCC2)Oc2c(F)cc(CC(C)(C)C)cc21 [compound 170]
28.2,15.9,,CC(=O)N[C@@H](Cc1ccc(F)cc1)[C@H](O)CN[C@H]1CC2(CCC2)Oc2c(F)cc(CC(C)(C)C#N)cc21 [compound 171]
43.3,18.6,,COCC(=O)N[C@@H](Cc1ccc(F)cc1)[C@H](O)CN[C@H]1CC2(CCC2)Oc2c(F)cc(CC(C)(C)C#N)cc21 [compound 172]
54.6,36.4,,CO[C@@H](C)C(=O)N[C@@H](Cc1ccc(F)cc1)[C@H](O)CN[C@H]1CC2(CCC2)Oc2c(F)cc(CC(C)(C)C#N)cc21 [compound 173]
52.6,7.2,,CC(=O)N[C@@H](Cc1ccc(F)cc1)[C@H](O)CN[C@H]1CC2(CCC2)Oc2c(F)cc(CC(C)(C)C)cc21 [compound 174]
9.34,2.17,,CC(=O)N[C@@H](Cc1ccc(F)c(F)c1)[C@H](O)CN[C@H]1CC2(CCC2)Oc2ncc([C@H](F)C(C)(C)C)cc21 [compound 177]
17.5,8.39,,CC(=O)N[C@@H](Cc1ccc2c(c1)OCO2)[C@H](O)CN[C@H]1CC2(CCC2)Oc2ncc(CC(C)(C)CF)cc21 [compound 178]
18.6,5.49,,COCC(=O)N[C@@H](Cc1ccc(F)cc1)[C@H](O)CN[C@H]1CC2(CCC2)Oc2ncc([C@H](F)C(C)(C)C)cc21 [compound 179]
7,2.32,,CC(=O)N[C@@H](Cc1ccccc1)[C@H](O)CN[C@H]1CC2(CCC2)Oc2ncc(CC(C)(C)CF)cc21 [compound 180]
17.6,15.5,,COCC(=O)N[C@@H](Cc1ccc2c(c1)OCO2)[C@H](O)CN[C@H]1CC2(CCC2)Oc2ncc(CC(C)(C)CF)cc21 [compound 181]
16,7.01,,CC(=O)N[C@@H](Cc1ccc2c(c1)OCO2)[C@H](O)CN[C@H]1CC2(CCC2)Oc2ncc([C@H](F)C(C)(C)C)cc21 [compound 182]
17.8,8.63,,COCC(=O)N[C@@H](Cc1ccc2c(c1)OCO2)[C@H](O)CN[C@H]1CC2(CCC2)Oc2ncc([C@H](F)C(C)(C)C)cc21 [compound 183]
6.45,2.46,,COCC(=O)N[C@@H](Cc1ccccc1)[C@H](O)CN[C@H]1CC2(CCC2)Oc2ncc(CC(C)(C)CF)cc21 [compound 184]
26.5,,7.76,CO[C@H](C)C(=O)N[C@@H](Cc1ccc(F)cc1)[C@H](O)CN[C@H]1CC2(CCC2)Oc2ncc([C@H](F)C(C)(C)C)cc21 [compound 186]
43.2,,23.8,CO[C@H](C)C(=O)N[C@@H](Cc1ccc2c(c1)OCO2)[C@H](O)CN[C@H]1CC2(CCC2)Oc2ncc(CC(C)(C)CF)cc21 [compound 190]
21.9,,20.9,COCCC(=O)N[C@@H](Cc1ccc2c(c1)OCO2)[C@H](O)CN[C@H]1CC2(CCC2)Oc2ncc(CC(C)(C)C)cc21 [compound 197]
32.1,,29,"CC(=O)NC(Cc1ccc(F)cc1)C(O)CNC1CC2(CCC2)Oc2ncc(CC(C)C(F)F)cc21 [compound 198, N-((1S,2R)-3-(((4′S)-6′-((2S)-3,3-difluoro-2-methylpropyl)-3′4′-dihydrospiro[cyclobutane-1,2′-pyrano[2,3-b]pyridin]-4′-yl)amino)-1-((4-fluorophenyl)methyl)-2-hydroxypropyl)acetamide]"
59.1,,45.2,CC(=O)N[C@@H](Cc1ccc(F)cc1)[C@H](O)CN[C@H]1CC2(CCC2)Oc2ncc(C[C@@H](C)C(F)F)cc21 [compound 199]
21.1,,2.84,CC(=O)N[C@@H](Cc1cc(Br)c2c(c1)OCO2)[C@H](O)CN[C@H]1CC2(CCC2)Oc2ncc(CC(C)(C)C)cc21 [compound 203]
